Data taken from patent US6433022B1, “Spermicide” (Medical Research Council, priority 1997, dated 2002).

How the values were obtained:
[1] = system: human spermatozoa; assay: Percentage motility of spermatozoa exposed to NADPH; assay type: cell-based; settings: doses 0.625 to 10 mM, at least 3 hr
[2] = system: human spermatozoa; assay: Quantification of superoxide anion generation by SOD-inhibitable reduction of cytochrome C; assay type: cell-based; settings: 2 mM, n=5
Protocol: Superoxide anion generation was quantified spectrophotometrically via the superoxide-dependent reduction of cytochrome C (McCord and Fridovich, 1969). Spermatozoa were used at an increased concentration of 10×10^7/ml in BWW supplemented with PVA (1 mg/ml). An aliquot (400 μl) of this sperm suspension was placed in a 1 ml disposable, plastic cuvette and 50 μl of cytochrome C (Type Vl from horse heart), was added to give a final working concentration of 100 μM. The reference cuvette contained the same ingredients, except that 50 μl of SOD was added to give final concentration of 196 U/ml. Absorbance was monitored at 550 nm and the SOD-inhibitable superoxide generation calculated using an extinction coefficient for reduced cytochrome C of ε=21.1 mM^−1cm^−1.

[3] = system: human spermatozoa; assay: Nicotinamide dinucleotide-induced superoxide generation, lucigenin-dependent chemiluminescence; assay type: cell-based
Text: (§1) ROS generation was monitored by luminometry employing the chemiluminescence probes lucigenin and luminol. Lucigenin is sensitive to the presence of superoxide anion and was used to monitor the free radical responses to NAD(P)H. Luminol, when used in conjunction with horseradish peroxidase (HRP; Sigma Type Vl, 288 U/mg), detects mainly hydrogen peroxide (Aitken et al., 1992) and was used to monitor the responses of spermatozoa to PMA (phorbol 12-myristate, 13-acetate), an activator of protein kinase C. NAD(P)H could not be used with the luminol-peroxidase system because of the generation of high background signals, presumably due to the oxidase reactions of HRP. Photon emission was monitored at 37° C. using the Bermold 9505B luminometer (Berthold, Wilbad, Germany) featuring 6 electronically compensated, peltier cooled, photomultipliers and the results expressed as counts/minute. For both of the probes used, 400 μl of spermatozoa, at a concentration of 10×10^6/ml, were placed in a 3 ml plastic, flat-bottomed plastic tube. For luminol-based reactions, the spermatozoa were suspended in BWW supplemented with Albuminar, but when lucigenin was used the Albuminar was replaced with 1 mg/ml polyvinyl alcohol. A 4 μl aliquot of a 25 mM stock solution of either luminol or lucigenin m-dimethyl sulphoxide (DMSO), was then added to the cell suspension, resulting in a final probe concentration of 250 μM. For the measurement of hydrogen peroxide generation by intact cells, luminol-dependent chemiluminescence was enhanced by addition of 8 μl of HRP, freshly prepared at a concentration of 2 mg/ml in PBS, to give a final HRP concentration of 11.52 U/ml. The luminometer results were recorded as continuous traces and as integrated photon counts over a fixed period of time (5 min).
The ability of human spermatozoa to generate superoxide anion in response to NADPH was monitored by lucigenin-dependent chemiluminescence and compared with its non-phosphorylated and non-reduced counterparts, i.e. NADH, NADP^+ and NAD^+. In addition, the stimulatory properties of an isomer of NADPH, usually non-active in reductive biosynthesis, were examined. All pyridine nucleotides were made up to the required concentration in PBS immediately prior to use. Stock solutions of the nucleotides were made up at concentrations 10 fold higher than the required final working concentration, to allow for a 10 fold dilution on addition to the suspensions of spermatozoa.

[4] = system: sperm, seminal plasma and serum; assay: Luminol/peroxidase-dependent chemiluminescence detection of quinone-induced H2O2; assay type: cell-based, human; settings: 50 μM
Text: as §1
Luminol alone measures H2O2; however when used alongside HRP, it can measure the production of H2O2 internally and externally. The sperm were prepared by standard percoll gradient and resuspended in seminal plasma or BWW/PVA to a concentration of 10 million cells per ml. […]

[5] = system: human sperm; assay: Effect of quinones on sperm motility; assay type: cell-based
Protocol: Following the preparation of spermatozoa by standard Percoll gradient they were resuspended in homologous seminal plasma to a concentration of 20 million per ml, immediately prior to the beginning of the experiment. 50 μl of the sperm suspension was placed in an eppendorf tube, and the quinone was either added alone or in combination with other reagents, for example, KI, HRP (Horseradish Peroxidase), BHT (butylated hydroxytoluene) etc. depending on the experiment. The volume was made up to 100 μl with BWW/PVA.
The quinone was always the final reagent to be added. […] The sample was gently agitated and 10 μl was placed on a slide and a motility was scored. The aim was to score a motility approximately 20 seconds following the addition of the quinone. There were two controls set up, one motility count taken at the beginning of the experiment (initial control) and one motility count taken at the end of the experiment (final control). The controls consisted of 50 μl of the sperm suspension followed by the addition of 50 μl BWW/PVA. The reason for having two controls was to observe if any changes in sperm motility had occurred simply as a factor of time, i.e. from residing in seminal plasma for a long duration. At all times during the experiment, the spermatozoa were incubated in a hot box at 24° C. All motility experiments were carried out on sperm suspended in seminal plasma unless otherwise stated.

[6] = system: spermatozoa in seminal plasma; assay: Lucigenin-dependent chemiluminescence detection of quinone-induced superoxide; assay type: cell-based, human; settings: increasing doses incl. 25 μM and 50 μM; FIG. 1b
Text: as §1, with “A 4 μl aliquot of a 25 mM stock solution of either luminol or lucigenin m-dimethyl sulphoxide (DMSO), was then added to the cell suspension, resulting in a final probe concentration of 250 μM. For the measurement of hydrogen peroxide generation by intact cells, luminol-dependent chemiluminescence was enhanced by addition of 8 μl of HRP, freshly prepared at a concentration of 2 mg/ml in PBS, to give a final HRP concentration of 11.52 U/ml.” left out, “min). […]” for “min).”

[7] = system: HIV-1; assay: Virucidal activity using cell-free virus (viral adhesion assay, syncytia in C8166 cells); assay type: cell-based
Protocol: A simple, microtitre plate assay was developed (viral adhesion assay) in which the virus was attached to the solid phase by Pol-L-lysine Hydrobromide (PLL, Sigma). Sterile 24 and 96 well plates (Nunc) were coated for 1 hour with 50 μl of 50 μg/ml PLL at room temperature. When using 96 well microtitre plates the outer ring of wells were left uncoated and filled with 250 μl of sterile PBS to counteract the effects of evaporation. The coated wells were washed twice with sterile PBS using a Denley-4 plate washer. 25 μl of RPMI 1640 medium containing HIV-1 (50×TCID50) was added to the wells and incubated for 1 hour at room temperature. The plate was again washed twice with sterile PBS. 25 μl of varying concentrations of the candidate virucide were added to each well for 15 minutes and the virucide removed with two washes of sterile PBS. The T-lymphocyte cell line C8166, at a concentration of 4×10^4 cells in 300Fl RPMI 1640, were added to each well so that the cells formed a uniform monolayer on the adherent virus. After incubation for 72 hours, the number of syncytia in the monolayer gave an accurate measure of the amount of infectious virus present. Wells untreated with virucide were used as positive controls. […] The assay allowed the efficient removal of the candidate virucides or disinfectant and allowed the compound to be assessed for accurately determined contact times.

[8] = system: spermatozoa; assay: Effect on lipid peroxidation in spermatozoa; assay type: cell-based, human; settings: exposure to compound vs control

Compound | percentage motility of the spermatozoa [1] | superoxide generation rate during sudden burst [2] | superoxide release rate after stabilisation ([2]; thereafter) | lucigenin-dependent chemiluminescent response (superoxide anion generation) ([3]; 500 μM nucleotide) | increase in the chemiluminescent signal ([3]; addition to spermatozoa, lucigenin, FIG. 5a) [fold] | H2O2 production in seminal plasma and serum ([4]; no spermatozoa) | H2O2 production, spermatozoa in BWW ([4]; on addition of the reagent) | time of peak of slow secondary increase in H2O2 after initial exposure ([4]; spermatozoa in BWW) [min] | mean motility score ([5]; 50 μM quinone, human sperm) [%] | sperm immobilisation ([5]; concentrations ranging from 25 μM to 100 μM) | IC50 ([5]; human sperm in seminal plasma, motility scored approximately 20 seconds after addition, read-out: ID50, dose-dependent inhibition of sperm motility) [µM] | superoxide burst generated by spermatozoa in seminal plasma [6] | antiviral activity against HIV-1 ([7]; absence of human semen, 15 minutes contact) | antiviral activity against HIV-1, effect of semen ([7]; presence of human semen vs absence) | lipid peroxidation in spermatozoa [8]
NC(=O)C1=CN([C@@H]2O[C@H](COP(=O)(O)OP(=O)(O)OC[C@H]3O[C@@H](n4cnc5c(N)ncnc54)[C@H](OP(=O)(O)O)[C@@H]3O)[C@@H](O)[C@H]2O)C=CC1 [NADPH, Dihydronicotinamide adenine dinucleotide phosphate] | remained unchanged | 99.52+/−9.12 pmol.min^−1. 10^6 spermatozoa | 7.65+/−0.97 pmol.min^−1. 10^6 spermatozoa | burst of ROS generation | 10 |  |  |  |  |  |  |  |  |  | 
O=C1C=CC(=O)c2ccccc21 [1,4-naphthoquinone] |  |  |  |  |  | no such activity | instantaneous significant burst of H2O2 | 25 to 30 | 0.143 | completely immobilised | ~10 | Increasing doses of this compound led to a corresponding increase in superoxide production | dose-dependent antiviral activity | potentiated by an order of magnitude | lipid peroxidation did not occur
